Reference: patent US20040253665A1, “Novel peptide-producing enzyme, microbe producing the enzyme and method for dipeptide synthesis using them” (AJINOMOTO CO., INC., priority 2002, published 2004)
Residues, ends and D or L forms follow the SMILES beside them.

system: enzyme (SP-Sepharose HP fraction) derived from Sphingobacterium sp. strain FERM BP-8124; test: not given; format: biochemical; parameters: key to Produced peptide (mM): +: those peptides for which production was confirmed but which were unable to be quantified due to the absence of a standard; a trace amount; details: Table 15-1; carboxy component 100 mM, amine component 150 mM, 0.33 units enzyme, pH 9.0, 25° C., 1.5 hours
Procedure: Substrate specificity was examined for enzyme derived from Sphingobacterium sp. strain FERM BP-8124 (Depositary institution: National Institute for Advanced Industrial Science and Technology, International Patent Organism Depositary, Address of depositary institution: Central. 6, 1-1-1 Higashi, Tsukuba City, Ibaraki Prefecture, Japan, International deposit date: Jul. 22, 2002). 100 μl of 100 mM borate buffer (pH 9.0) containing the various carboxy components at a final concentration of 100 mM and the various amine components at a final concentration of 150 mM shown in Tables 15-1 to 15-4, the SP-Sepharose HP fraction enzyme purified in Example 22 (addition of 0.33 units in the reaction liquid) and 10 mM EDTA were allowed to react at 25° C. for 1.5 hours. […] In addition, hydrochlorides were used for all carboxy components.
Substrate specificity with respect to oligopeptide production was examined for enzyme derived from Sphingobacterium sp. strain FERM BP-8124 (Depositary institution: National Institute for Advanced Industrial Science and Technology,.International Patent Organism Depositary, Address of depositary institution: Chuo Dai-6, 1-1 Higashi 1-Chome, Tsukuba-shi, Ibaraki-ken, Japan, International deposit date: Jul. 22, 2002). A 100 μl aliquot of 100 mM borate buffer (pH 9.0) containing the various carboxy components at a final concentration of 100 mM and the various amine components at a final concentration of 150 mM shown in Table 16, the SP-Sepharose HP fraction enzyme purified in Example 22 (addition of 0.33 units in the reaction liquid) and 10 mM EDTA were allowed to react for 1.5 hours at 25° C. Furthermore, hydrochloride salts were used for all carboxy components.

| Produced peptide [mM] | SMILES |
| --- | --- |
| 72.2 | C[C@H](N)C(=O)N[C@@H](CCCN=C(N)N)C(=O)O [L-Ala-L-Arg] (H-Ala-Arg-OH) |
| 73.6 | C[C@H](N)C(=O)N[C@@H](Cc1cnc[nH]1)C(=O)O [L-Ala-L-His] (H-Ala-His-OH) |
| 33.0 | CC(C)C[C@H](NC(=O)[C@H](C)N)C(=O)O [L-Ala-L-Leu] (H-Ala-Leu-OH) |
| 86.9 | CSCC[C@H](NC(=O)[C@H](C)N)C(=O)O [L-Ala-L-Met] (H-Ala-Met-OH) |
| 69.5 | C[C@H](N)C(=O)N[C@@H](Cc1ccccc1)C(=O)O [L-Ala-L-Phe] |
| 1.5 | C[C@H](N)C(=O)N1CCC[C@H]1C(=O)O [L-Ala-L-Pro] (H-Ala-Pro-OH) |
| 43.8 | C[C@H](N)C(=O)N[C@@H](CO)C(=O)O [L-Ala-L-Ser] (H-Ala-Ser-OH) |

same assay, conditions: Table 15-2; carboxy component 100 mM, L-Gln 150 mM, 0.33 units enzyme, pH 9.0, 25° C., 1.5 hours

| Produced peptide [mM] | SMILES |
| --- | --- |
| 0.05 | NC(=O)CC[C@H](NC(=O)[C@@H](N)CC(=O)O)C(=O)O [α-L-Asp-L-Gln] (H-Asp-Gln-OH) |

same assay, conditions: Table 15-3; carboxy component 100 mM, amine component 150 mM, 0.33 units enzyme, pH 9.0, 25° C., 1.5 hours

| Produced peptide [mM] | SMILES |
| --- | --- |
| 36.2 | NCC(=O)N[C@@H](Cc1cnc[nH]1)C(=O)O [Gly-L-His] (H-Gly-His-OH) |

same assay, conditions: Table 15-4; amides or methylamine as components; 100 mM / 150 mM, 0.33 units enzyme, pH 9.0, 25° C., 1.5 hours

| Produced peptide (mM) | SMILES |
| --- | --- |
| tr | C[C@H](N)C(=O)N[C@@H](Cc1cnc[nH]1)C(=O)O [L-Ala-L-His] (H-Ala-His-OH) |
| tr | CSCC[C@H](NC(=O)[C@H](C)N)C(=O)O [L-Ala-L-Met] (H-Ala-Met-OH) |

system: Empedobacter brevis strain FERM BP-8113 microbial cells; test: Production of peptide using microbial cells of Empedobacter brevis; format: cell-based; details: microbial cell suspension 100 g/L mixed 1:1 with 200 mM carboxy component and 400 mM amino acid, pH 9.0, 10 mM EDTA, 18° C., 2 hours
Procedure: A 50 mL medium (pH 6.2) containing 5 grams (hereinafter, “g”) of glucose, 5 g of ammonium sulfate, 1 g of monopotassium phosphate, 3 g of dipotassium phosphate, 0.5 g of magnesium sulfate, 10 g of yeast extract and 10 g of peptone in 1 liter (hereinafter, “L”) was transferred to a 500 mL Sakaguchi flask and sterilized at 115° C. for 15 minutes. This medium,was then inoculated with one loopful of the culture broth of Empedobacter brevis strain FERM BP-8113 (Depositary institution: National Institute for Advanced Industrial Science and Technology, International Patent Organism Depositary, Address of depositary institution: Chuo Dai-6, 1-1 Higashi 1-Chome, Tsukuba-shi, Ibaraki-ken, Japan, International deposit transfer date: Jul. 8, 2002) that had been cultured at 30° C. for 16 hours in the same medium, followed by shake culturing at 30° C. for 16 hours and 120 strokes/min.

| SMILES | Produced peptide [mM] |
| --- | --- |
| NCC(=O)N[C@@H](Cc1cnc[nH]1)C(=O)O [Gly-L-His] (H-Gly-His-OH) | 22.1 |
| C[C@H](N)C(=O)N[C@@H](CCCN=C(N)N)C(=O)O [L-Ala-L-Arg] (H-Ala-Arg-OH) | 72.1 |
| C[C@H](N)C(=O)N[C@@H](Cc1cnc[nH]1)C(=O)O [L-Ala-L-His] (H-Ala-His-OH) | 52.1 |
| CC(C)C[C@H](NC(=O)[C@H](C)N)C(=O)O [L-Ala-L-Leu] (H-Ala-Leu-OH) | 38.2 |
| CSCC[C@H](NC(=O)[C@H](C)N)C(=O)O [L-Ala-L-Met] (H-Ala-Met-OH) | 68.3 |
| C[C@H](N)C(=O)N[C@@H](Cc1ccccc1)C(=O)O [L-Ala-L-Phe] | 62.4 |
| C[C@H](N)C(=O)N[C@@H](CO)C(=O)O [L-Ala-L-Ser] (H-Ala-Ser-OH) | 51.3 |

system: peptide-producing enzyme (Mono S fraction) from Empedobacter brevis strain FERM BP-8113; test: Enzyme substrate specificity (1)-(10), (13), (14); format: biochemical; details: 100 mM L-alanine methyl ester hydrochloride, L-amino acid 150 mM, pH 9.0, 25° C., 3 hours
Procedure, shortened: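 Mono S-purified peptide-forming enzyme from Empedobacter brevis FERM BP-8113, given L-amino acid esters (hydrochlorides) or amides as carboxy component with amino acids, C-protected amino acids, methylamine, β-amino acids or peptides as amine component. Dipeptide/oligopeptide product quantified; Tween-80 0.1% added with L-Trp-OMe.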

| Produced peptide [mM] | SMILES |
| --- | --- |
| 88.0 | C[C@H](N)C(=O)N[C@@H](CCCN=C(N)N)C(=O)O [L-Ala-L-Arg] (H-Ala-Arg-OH) |
| 66.9 | C[C@H](N)C(=O)N[C@@H](Cc1cnc[nH]1)C(=O)O [L-Ala-L-His] (H-Ala-His-OH) |
| 45.3 | CC(C)C[C@H](NC(=O)[C@H](C)N)C(=O)O [L-Ala-L-Leu] (H-Ala-Leu-OH) |
| 83.3 | CSCC[C@H](NC(=O)[C@H](C)N)C(=O)O [L-Ala-L-Met] (H-Ala-Met-OH) |
| 74.4 | C[C@H](N)C(=O)N[C@@H](Cc1ccccc1)C(=O)O [L-Ala-L-Phe] |
| 62.5 | C[C@H](N)C(=O)N[C@@H](CO)C(=O)O [L-Ala-L-Ser] (H-Ala-Ser-OH) |

same assay, conditions: L-amino acid amide hydrochloride 100 mM as carboxy component, L-amino acid 150 mM, pH 9.0, 25° C., 3 hours

| Produced peptide [mM] | SMILES |
| --- | --- |
| 3.9 | C[C@H](N)C(=O)N[C@@H](Cc1cnc[nH]1)C(=O)O [L-Ala-L-His] (H-Ala-His-OH) |
| 3.4 | CSCC[C@H](NC(=O)[C@H](C)N)C(=O)O [L-Ala-L-Met] (H-Ala-Met-OH) |

same assay, conditions: L-amino acid methyl ester hydrochloride 100 mM, L-amino acid 150 mM, pH 9.0, 25° C., 3 hours

| Produced peptide [mM] | SMILES |
| --- | --- |
| 31.6 | NCC(=O)N[C@@H](Cc1cnc[nH]1)C(=O)O [Gly-L-His] (H-Gly-His-OH) |

system: peptide-producing enzyme (Mono S fraction) from Empedobacter brevis strain FERM BP-8113; test: Enzyme substrate specificity (1)-(10), (13), (14); format: biochemical; parameters: key: +: those peptides for which production was confirmed but which were unable to be quantified due to the absence of a standard; a trace amount; details: 100 mM L-alanine methyl ester hydrochloride, L-amino acid 150 mM, pH 9.0, 25° C., 3 hours; remark: another data set of the same source
Description: Ester specificity was examined in the case of using L-amino acid ester for the carboxy component. […] The amounts of L-Ala-L-Gln produced in this reaction are shown in Table 4 (HCl represents hydrochloride in Table 4). Peptide production was examined in the case of using L-alanine methyl ester for the carboxy component and using various L-amino acids for the amine component. […] (The “+” mark indicates those peptides for which production was confirmed but which were unable to be quantified due to the absence of a standard, while “tr” indicates a trace amount.) Peptide production was examined in the case of using various types of L-amino acid methyl esters for the carboxy component and using L-glutamine for the amine component. […] Peptide production was examined in the case of using various L-amino acid methyl esters for the carboxy component and various L-amino acids for the amine component. […] (The “tr” indicates a trace amount.) Furthermore, Tween-80 was added to the reaction system to a final concentration of 0.1% in the case of using L-Trp-OMe. (The “+” mark indicates those peptides for which production was confirmed but which were unable to be quantified due to the absence of a standard.) […] (The “tr” indicates a trace amount.) Peptide production was examined using various L-amino acid amides for the carboxy component, and various L-amino acids for the amine component. […] Peptide production was examined in the case of using various L-alanine methyl esters for the carboxy component and C-protected L-amino acids for the amine component. […] Peptide production was examined in the case of using various amino acid methyl esters for the carboxy component and methylamine for the amine component. […] Peptide production was examined in the case of using β-amino acid ester for the carboxy component or β-amino acid for the amine component. […] (The “tr” indicates a trace amount.) Oligopeptide production was examined in the case of using L-amino acid ester for the carboxy component and peptide for the amine component. […] Substrate specificity was additionally assessed using the same enzyme fraction as that used in Example 5. […] (A “+” mark indicates those for which production was confirmed but which were unable to be quantified due to the absence of a standard, while “tr” indicates a trace amount). Substrate specificity with respect to oligopeptide production was assessed using the same enzyme fraction as Example 26. […] (A “+” mark indicates those for which production was confirmed but which were unable to be quantified due to the absence of a standard, while “tr” indicates a trace amount). It should be noted that hydrochlorides were used for all of the carboxy components.

| Produced peptide (mM) | SMILES |
| --- | --- |
| tr | C[C@H](N)C(=O)N1CCC[C@H]1C(=O)O [L-Ala-L-Pro] (H-Ala-Pro-OH) |

same assay, conditions: L-amino acid methyl ester hydrochloride 100 mM, 150 mM L-glutamine, pH 9.0, 25° C., 3 hours

| Produced peptide (mM) | SMILES |
| --- | --- |
| tr | NC(=O)CC[C@H](NC(=O)[C@@H](N)CC(=O)O)C(=O)O [α-L-Asp-L-Gln] (H-Asp-Gln-OH) |
